pIC50: −log10 of the molar value. Entries after “also recorded” stand apart in the source; their conditions may differ. Like-named read-outs stand apart in the source and are kept apart here.
What was measured:
[1] = Deacylation by esterases present in the enzyme solution prepared from rat platelets; format: in vitro ADME; details: platelet enzyme solution, 37° C., read-out: conversion (%) from Formula 34b or Formula 35b to Formula 32b; for metabolised at 0.5 h, 10 µM: Reaction time 30 min.; for metabolised at 1 h, 10 µM: Reaction time 60 min.
Experimental: The test was performed to examine whether or not deacylated compounds would be formed due to esterases present in the enzyme solution when the compounds in the third embodiment according to the present invention were treated with the same enzyme solution as in Test Example 4.
The enzyme solution was prepared according to the same procedure as described in Test Example 4.
(§1) One ml of the above mentioned enzyme solution was diluted with 11 ml of a resuspension buffer. To an aliquot (300 μl) of this enzyme solution was added 3 μl of a 1.0×10^-3 M test compound solution in dimethyl sulfoxide. The mixture was incubated at 37° C. for an indicated time, then the reaction was ceased by the addition of 1 ml of acetonitrile. Twenty μl of the above mixture was subjected to reverse phase high-performance liquid chromatography equipped with a C-18 column to quantify the amount of deacylated products. As a control, a test using 300 μl of the resuspension buffer solution mentioned above instead of the enzyme solution was also performed.
Conditions of reverse phase high-performance liquid chromatography:
Column: Superspher RP-18(e) (purchased from Merck), 4.0 mm in diameter, 125 mm in length
Flow velocity: 1.0 ml/minute
Eluent: Acetonitrile containing 50 mM NaClO4 and 50 mM orthophosphate-water (55: 45)
Column temperature: 30° C.
Calibration: Absorbance of 280 nm

[2] = Deacylation control test in resuspension buffer instead of enzyme solution; format: in vitro ADME; details: resuspension buffer instead of the enzyme solution
Experimental: as §1

12-lipoxygenase [3] = details: background; cited from earlier work
5-lipoxygenase = target: T1, 5-lipoxygenase (Rattus norvegicus, UniProt P12527); assay: 5-lipoxygenase inhibition assay (rat basophilic leukemia cell RBL-1 enzyme solution); format: biochemical
T1 construct: Cultured cells were collected and washed twice; host or cells: RBL-1 rat basophilic leukemia cells (sonicate, 10,000 x g supernatant)
T1 sequence (P12527 1-673): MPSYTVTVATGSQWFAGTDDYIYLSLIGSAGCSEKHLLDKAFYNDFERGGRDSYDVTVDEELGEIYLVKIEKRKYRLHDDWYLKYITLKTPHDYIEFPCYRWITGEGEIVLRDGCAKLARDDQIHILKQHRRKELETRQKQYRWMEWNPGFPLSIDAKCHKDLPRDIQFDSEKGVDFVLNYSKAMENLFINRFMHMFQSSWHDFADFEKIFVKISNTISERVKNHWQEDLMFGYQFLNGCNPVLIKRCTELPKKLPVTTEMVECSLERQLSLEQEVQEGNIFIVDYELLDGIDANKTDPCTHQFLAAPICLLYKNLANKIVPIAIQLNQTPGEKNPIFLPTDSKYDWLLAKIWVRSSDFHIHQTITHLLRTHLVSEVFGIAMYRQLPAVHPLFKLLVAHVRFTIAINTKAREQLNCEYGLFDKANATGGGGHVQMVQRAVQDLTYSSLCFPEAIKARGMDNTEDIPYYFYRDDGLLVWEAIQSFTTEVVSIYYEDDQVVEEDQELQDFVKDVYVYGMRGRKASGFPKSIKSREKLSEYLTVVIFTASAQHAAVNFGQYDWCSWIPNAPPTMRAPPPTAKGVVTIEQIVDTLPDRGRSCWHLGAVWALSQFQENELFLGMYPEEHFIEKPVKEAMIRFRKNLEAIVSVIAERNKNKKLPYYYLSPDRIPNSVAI
Experimental: The test was carried out to examine the selectivity toward 12-lipoxgenase of the compounds of the first embodiment in the present invention.
i) Preparation of 5-lipoxgenase enzyme solution
Rat basophilic leukemia cells (RBL-1, ATCC CRL1378) were cultured in Dulbecco modified Eagle's medium containing 10% new-born bovine serum.
Cultured cells were collected and washed twice with a 50 mM Tris-buffered saline (containing 154 mM sodium chloride, pH: 7.4, hereinafter described as TBS). The cell suspension (4×10^7 cells/ml) was then sonicated and centrifuged at 10,000×g for 10 minutes.
The resultant supernatant was used to prepare an assay solution.
i) Procedure for 5-lipoxgenase inhibition assay
To an aliquot (15 μl) of the enzyme solution (40 mU/ml equivalent) was added 185 μl of TBS, 50 μl of a 2 mM adenosine triphosphate in TBS, 50 μl of a 12 mM calcium chloride in TBS, 1 μl of a 3 mM indomethacin in ethanol solution, 1 μl of an aqueous 300 mM reduced glutathione solution, and 3 μl of varied concentrated test compounds solution in ethanol. The resultant mixture was incubated at 37° C. for 5 minutes. Subsequently, 3 μl of a 2.5 mM arachidonic acid solution in ethanol was added to incubate the mixture for 2 minutes at 37° C. The reaction was ceased by the addition of 600 μl of methanol After being centrifuged at 10,000×g for 5 minutes, 5-hydroxyeicosatetraenoic acid recovered in the supernatant was separated with a reverse phase high-performance liquid chromatography equipped with a C-18 column and measured the absorption of diene at 234 nm to quantify the activity of the enzyme. […]
The enzyme activities of the compounds of the present invention prepared according to the same procedure as in Examples 54-58 to be described later and baicalein as sample substances at varied concentrations were measured according to the above-mentioned method, and mole concentrations showing 50% 12-lipoxgenase and 5-lipoxgenase inhibition ratios (hereinafter may be described as IC50 values) were obtained from the measured values of the sample substances.

12-lipoxygenase [4] = target: T2, 12-lipoxygenase (Rattus norvegicus, UniProt F1LQ70); assay: 12-lipoxygenase inhibition assay (rat platelet enzyme solution); format: biochemical, Sprague Dawley male rat
T2 construct: The pelleted platelets were rinsed twice with a washing buffer; from tissue; host or cells: platelets of Sprague Dawley male rat (sonicate, 100,000 x g supernatant)
T2 sequence (F1LQ70 1-663): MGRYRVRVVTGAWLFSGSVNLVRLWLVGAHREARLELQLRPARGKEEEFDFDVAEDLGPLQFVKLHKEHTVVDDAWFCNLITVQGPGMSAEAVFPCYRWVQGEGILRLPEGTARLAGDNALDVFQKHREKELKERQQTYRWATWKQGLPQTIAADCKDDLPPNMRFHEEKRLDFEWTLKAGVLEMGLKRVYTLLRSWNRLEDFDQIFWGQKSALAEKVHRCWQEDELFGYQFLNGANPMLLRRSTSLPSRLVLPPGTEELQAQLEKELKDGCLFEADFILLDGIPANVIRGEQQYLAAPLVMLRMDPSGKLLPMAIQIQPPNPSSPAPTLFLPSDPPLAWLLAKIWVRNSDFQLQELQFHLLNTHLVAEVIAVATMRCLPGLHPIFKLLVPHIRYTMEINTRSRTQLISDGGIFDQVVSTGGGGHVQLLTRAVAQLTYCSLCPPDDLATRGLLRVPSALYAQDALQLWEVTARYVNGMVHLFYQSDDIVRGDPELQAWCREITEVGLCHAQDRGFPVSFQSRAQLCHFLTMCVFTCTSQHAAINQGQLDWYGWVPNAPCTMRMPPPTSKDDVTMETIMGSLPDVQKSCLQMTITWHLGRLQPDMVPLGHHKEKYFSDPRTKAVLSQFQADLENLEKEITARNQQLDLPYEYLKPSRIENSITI
Experimental: The test was performed to examine inhibitory effect of various compounds on the 12-lipoxyganase activity.
1) Preparation of Enzyme Solution
A Sprague Dawley male rat was anesthetized with ether and bled from abdominal aorta using a syringe filled with about one-tenth volume of 3.8% sodium citrate. Blood was centrifuged at 180×g for 15 minutes at room temperature to pellet sanguineous platelet blood plasma. The resultant supernatant was again centrifuged at 1800×g for 10 minutes at 4° C. The pelleted platelets were rinsed twice with a washing buffer (50 mM Tris-hydrochloric acid buffer containing 154 mM sodium chloride and 2 mM EDTA, pH: 7.4). The platelets were then suspended in one-twentieth volume of a resuspension buffer (50 mM Tris-hydrochloric acid buffer containing 154 mM sodium chloride and 5.5 mM glucose, pH: 7.4). The platelets were then sonicated at 4° C. and centrifuged at 100,000×g for 30 minutes to obtain a supernatant as a 12-lipoxgenaseenzyme solution.
2) Procedure for 12-lipoxgenase inhibition assay
The enzyme solution described above was diluted with the resuspension buffer above mentioned to prepare an assay solution so as to include about 2 mU/ml of 12-lipoxygenase. […] The resultant mixture was incubated at 37° C. for 5 minutes. Subsequently, 3 μl of a 2.5 mM arachidonic acid solution in ethanol was added to incubate with for another 5 minutes at 37° C., then the reaction was ceased by the addition of 600 μl of methanol. After being centrifuged at 10,000×g for 5 minutes, 12-hydroxyeicosatetraenoic acid recovered in the supernatant was separated with a reverse phase high-performance liquid chromatography equipped with a […] the activity of 12 lipoxygenase.
The enzyme solution was prepared according to the same manner as in Test Example 1.
It was prepared according to the same procedure as in Test Example 1.
Measurement was performed according to the same procedure as in Test Example 1.
The measurement was performed according to the same procedure as in Test Example 1.

[5] = Table 23, read-out: 5-Lipoxygenase inhibitory effect IC50
[6] = Table 23, read-out: 12-Lipoxygenase inhibitory effect IC50
[7] = Table 3, read-out: IC50 values of 5-lipoxygenase (mole)
[8] = Table 3, read-out: IC50 values of 12-lipoxygenase (mole)
[9] = Table 12, deacylated compounds, read-out: 12-Lipoxygenase inhibitory effect of deacylated compounds (IC50 values)

SMILES | pIC50 (5-lipoxygenase; [7]) | pIC50 (12-lipoxygenase [4]; [8]) | other results
CCC(=O)Oc1ccc(C=C(C#N)c2ccc(Cl)cc2)cc1OC(=O)CC [Formula 35b] |  |  | metabolised at 0.5 h, 10 µM [1]: 56.5%; metabolised at 1 h, 10 µM [1]: 64.6%; formation of deacylated compound (Formula 32b) [2]: no deacylated compound (Formula 32b) was formed
O=c1cc(-c2ccccc2)oc2cc(O)c(O)c(O)c12 [Baicalein, baicalein] |  |  | 12-lipoxygenase inhibitory effect (literature, in words) (12-lipoxygenase [3]): having an inhibitory effect to 12-lipoxygenase; also recorded: relatively high 12-lipoxgenaseinhibitory activities and a relatively high selectivity
N#CC(=Cc1cc2ccccc2o1)c1ccc(O)c(O)c1 [Formula 26c] |  |  | pIC50 (5-lipoxygenase; [5]): 7.47; pIC50 (12-lipoxygenase [4]; [6]): 8.49
N#CC(=Cc1ccc(O)c(O)c1)c1ccccc1 [Ex. 9] | 6.96 | 7.82 | 
N#CC(=Cc1ccc(O)c(O)c1)c1ccc(Br)cc1 [Ex. 4] | 7.82 | 8.44 | 
N#CC(=Cc1ccc(O)c(O)c1)c1ccc(C#N)cc1 [Ex. 16] | 7.00 | 7.55 | 
CC(=O)Oc1ccc(C=C(C#N)c2ccc(Cl)cc2)cc1OC(C)=O [Formula 34b] |  |  | metabolised at 0.5 h, 10 µM [1]: 70.9%; metabolised at 1 h, 10 µM [1]: 82.8%; formation of deacylated compound (Formula 32b) [2]: no deacylated compound (Formula 32b) was formed
N#CC(=Cc1cccc(Cl)c1)c1ccc(O)c(O)c1 [Ex. 22, α-cyano-3'-chloro-3,4-dihydroxystilbene] | 7.47 | 8.29 | pIC50 (12-lipoxygenase [4]; [9]): 8.29
Cc1cccc(C=C(C#N)c2ccc(O)c(O)c2)c1 [Bz. 25, α-cyano-3'-methyl-3,4-dihydroxystilbene] | 7.36 | 8.15 | 
N#CC(=Cc1ccc(O)c(O)c1)c1ccc(I)cc1 [Ex. 5, α-cyano-4-iodo-3',4'-dihydroxystilbene] | 7.70 | 8.27 | pIC50 (12-lipoxygenase [4]; [9]): 8.27
N#CC(=Cc1ccc(O)c(O)c1)c1ccc([N+](=O)[O-])cc1 [Ex. 17, α-cyano-4-nitro-3',4'-dihydroxystilbene] | 6.89 | 8.06 | pIC50 (12-lipoxygenase [4]; [9]): 8.06
N#CC(=Cc1cccc2ccccc12)c1ccc(O)c(O)c1 [Formula 25c] |  |  | pIC50 (5-lipoxygenase; [5]): 7.44; pIC50 (12-lipoxygenase [4]; [6]): 8.23
N#CC(=Cc1ccccc1)c1ccc(O)c(O)c1 [Ex. 20, α-cyano-3,4-dihydroxystilbene] | 7.02 | 7.77 | 
